Laboratory results from patent US20190151283A1, “NON-STEROIDAL SELECTIVE GLUCOCORTICOID RECEPTOR AGONISTIC MODULATORS (SEGRAMs) AND USES THEREOF” (ASSOCIATION POUR LA RECHERCHE À L'IGBMC (ARI), priority 2017, published 2019).

Columns and labels:
Type in all cases: in vivo, mouse
Male mice (DBA-1 strain) = assay: Collagen-induced arthritis (CIA); settings: for hind paw thickness at the ankle level: i.p. 1 mg/kg daily for 10 days (T0 to T10); for RNA transcripts of the pro-inflammatory genes expressed in the hind paws (IL-1β, IL-6, IL-17a, IL-17f, TNFα): q-RT-PCR, T10, 'but not' = not repressed
Protocol: Mice were treated with collagen to induce a Th17 rheumatoid arthritis-like inflammation as described by Inglis et al. (2007. Arthritis Res Ther. 9(5):R113) and Geboes et al. (2009. Arthritis Rheum. 60(2):390-5).
Male mice (DBA-1 strain) were subcutaneously-injected with 100 μg collagen per mouse on D0. The hind paw thickness at the ankle level was regularly measured with a caliper. When the ankle thickness had reached around 4 mm (T0, i.e., 30 to 50 days after the collagen injection on D0), mice were daily intraperitoneally-injected for 10 days (T0 to T10) with either vehicle (NaCl 0.9%), Dex, CpdX, CpdX(eA), CpdX(eB), CpdX-D3, CpdX-D3(eA) or CpdX-D3(eB) (1 mg/kg body weight diluted in NaCl 0.9%), and the hind paw thickness at the ankle level was daily measured with a caliper. Pictures of the hind paws were taken at days T0 and T10 (before and after the treatment with either Vehicle, Dex, CpdX, CpdX(eA), CpdX(eB), CpdX-D3, CpdX-D3(eA) or CpdX-D3(eB)), in order to assess the course of swelling.
RNA transcripts were extracted from whole hind paws of collagen-untreated and collagen-treated mice at T0 and T10. IL-1β, IL-6, IL-17a, IL-17f and TNFα transcripts were analyzed by q-RT-PCR.

Balb/C mice = assay: Ovalbumin (OVA)-induced allergic conjunctivitis; settings: 0.1% instillation D22 to D24, 20 minutes after the last OVA challenge
Protocol: To investigate the anti-inflammatory effect of CpdX or CpdX-D3 on an allergic conjunctivitis, Balb/C mice were intraperitoneally sensitized with 50 μg OVA with alum on both days D1 and D8, and then challenged from D15 to D21 with 250 μg OVA in 5 μL of sterilized vehicle (0.9% NaCl), which were directly instilled onto the conjunctival sac. From D22 to D24, mice were divided into several groups, and received instillations with either OVA alone, OVA together with 0.1% of either Dex, CpdX, CpdX(eA), CpdX(eB), CpdX-D3, CpdX-D3(eA) or CpdX-D3(eB).
The clinical appearance of mouse eyes was evaluated 20 minutes after the last instillation on D24. Clinical signs (conjunctival hyperemia, lid edema and tearing) were scored to evaluate the occurrence and severity of conjunctivitis as described by Gimenes et al. (2015. Experimental Eye Research 134:24-32). Parameters were graded on a scale ranging from 0 to 3, (0=absence, 1=mild, 2=moderate, and 3=severe symptoms), each animal receiving a total clinical score ranging from 0 to 9. The data were expressed as mean±SEM with at least four mice per treatment.

B6 male mice [1] = assay: Corticosterone synthesis and adrenal gland after three-month treatment; settings: for plasmatic corticosterone level: at 10 a.m., compared to control mice (Vehicle); for cortex layers, most notably the fasciculata zone, of the adrenal glands / glomerulosa zone of the adrenal cortex / transcripts of Cyp11a, Cyp11b1 and HSD3β genes in adrenal glands: three months; for cortex layers, most notably the fasciculata zone, of the adrenal glands / glomerulosa zone of the adrenal cortex: histology; for glomerulosa zone of the adrenal cortex: 'but not' = not decreased; for transcripts of Cyp11a, Cyp11b1 and HSD3β genes in adrenal glands: q-RT-PCR
Protocol: B6 male mice (8-week-old) were daily subjected for three months to either a subcutaneous injection of vehicle (NaCl 0.9%), Dex, CpdX, CpdX(eA), CpdX(eB), CpdX-D3, CpdX-D3(eA) or CpdX-D3(eB) (1 mg/kg body weight, diluted in vehicle).
Following this long-term treatment, blood was collected at 10 a.m. and 6 p.m. by retro-orbital puncture in lithium-heparin coated vials, and the plasmatic level of corticosterone was determined. Adrenal glands were harvested and weighted. RNA transcripts were extracted and transcripts of the Cyp11a, Cyp11b1, Cyp11b2 and HSD3β genes were analyzed by q-RT-PCR. Histological analyses of the adrenal glands were also carried out.

B6 male mice [2] = assay: Blood glucose and intraperitoneal glucose tolerance test after three-month treatment; settings: for control of the blood glucose level: three months, conclusion; for blood glucose level in intraperitoneal glucose tolerance test (IPGTT): two-hour period after glucose i.p. injection (2 mg/kg body weight)
Protocol: B6 male mice (8-week-old) were daily subjected for three months to a subcutaneous injection of either vehicle (NaCl 0.9%), Dex, CpdX, CpdX(eA), CpdX(eB), CpdX-D3, CpdX-D3(eA) or CpdX-D3(eB) (1 mg/kg body weight, diluted in vehicle). Mice were over-night-fasted. Mouse blood glucose concentration was measured before (T0) and during two hours (T120) after glucose i.p. injection ([…] body weight).

mice = assay: House dust mite (HDM)-induced asthma-like allergic lung inflammation; settings: for total number of BAL cells, eosinophils and lymphocytes: 0.5 mg/kg on D29-D31, BAL on D32, vs control group; for peribronchiolar and perivascular inflammatory cell infiltration: histology of lung paraffin sections; for expressions of IL-1β, IL-6, IL-4, IL-5, IL-13, Eotaxin and CCL4 (pro-inflammatory genes) in lung samples / HDM-induced airway hyperresponsiveness (AHR), airway resistance and elastance: D32; for HDM-induced airway hyperresponsiveness (AHR), airway resistance and elastance: response to methacholine 50 mg/mL
Protocol: Glucocorticoids have been (Pearlman et al., 1997. Ann Allergy Asthma Immunol. 78(4):356-62), and are still, widely used in asthma therapy. In order to investigate the possible CpdX anti-inflammatory activity in vivo, mice were sensitized and challenged with either ovalbumin (OVA) or house dust mite (HDM) to induce an asthma-like allergic lung inflammation.
Mice were intranasally sensitized with 1 μg HDM from DO to D4, and further intranasally sensitized with 10 μg HDM on D14 and D21. Mice were then subdivided into eight groups, and on D29, D30 and D31, each mouse was again intranasally challenged with 1 μg HDM. The first seven groups received respectively 0.5 mg/kg of body weight of Dex, CpdX, CpdX(eA), CpdX(eB), CpdX-D3, CpdX-D3(eA) or CpdX-D3(eB), while the eighth group served as a control.
On D32, the airway responsiveness was invasively determined using a computer-controlled small animal ventilator (FlexVent® system, SCIREQ Technologies). Mice were anesthetized with xylazine (15 mg/kg, i.p.), followed 15 minutes later by an i.p. injection of pentobarbital sodium (54 mg/kg). An 18-gauge metal needle was then inserted into the trachea, each mouse was connected to the FlexVent® ventilator and quasi-sinusoidally ventilated with a tidal volume of 10 mL/kg at a frequency of 150 breaths/minute and a positive end-expiratory pressure of 2 cm H2O, in order to achieve a mean lung volume close to spontaneous breathing. After baseline measurement, mice were challenged for 10 seconds with a saline aerosol and, at 4.5-minute intervals, with 50 mg/mL methacholine. Airway resistance and elastance were expressed as cmH20·s/mL and cmH2O/mL respectively.
The lung allergic inflammation was assessed by examination of the bronchoalveolar lavage (BAL) fluid from each of these HDM-challenged mice. The total BAL cells, eosinophils, neutrophils, macrophages and lymphocytes were counted. RNA transcripts were extracted from lung samples. RNA transcripts of IL-1β, IL-6, IL-4, IL-5, IL-13, Eotaxin, CCL4, IL-10 and TNFα were analyzed by q-RT-PCR. Lung tissues were harvested and histological (with H&E staining) and immunohistochemical analyses were also carried out (with eosinophil-specific and neutrophil-specific antibodies).

`[2H]C([2H])([2H])Oc1ccc(F)cc1C(C)(C)CC(O)(CNc1ccc2c(c1)COC2=O)C(F)(F)F` (stereo not shown) [CpdX-D3(eB), 5-{4-[2-(methoxy-D3)-5-fluorophenyl]-2-hydroxy-4-methyl-2-(trifluoromethyl)pentylamino}isobenzofuran-1(3H)-one] was tested, and the “hind paw thickness at the ankle level” value (Male mice (DBA-1 strain); 1 mg/kg) was “no such decrease”, the “clinical signs of allergic conjunctivitis (conjunctival hyperemia, lid edema and tearing)” value (“clinical signs” for short) (Balb/C mice) was “considerably reduced” and the plasmatic corticosterone level (B6 male mice [1]) was “much higher”. The “cortex layers, most notably the fasciculata zone, of the adrenal glands” value (“cortex layers” for short) (B6 male mice [1]) was “markedly increased”, the “glomerulosa zone of the adrenal cortex” value (B6 male mice [1]) was “but not” and the “transcripts of Cyp11a, Cyp11b1 and HSD3β genes in adrenal glands” value (shortened to “transcripts of Cyp11a”) (B6 male mice [1]) was “increased”. For the same molecule, the “control of the blood glucose level” value (B6 male mice [2]) was “does not significantly affect” and the “blood glucose level in intraperitoneal glucose tolerance test (IPGTT)” value (“blood glucose level … (IPGTT)” for short) (B6 male mice [2]) was “no significant difference”.

For `COc1ccc(F)cc1C(C)(C)CC(O)(CNc1ccc2c(c1)COC2=O)C(F)(F)F` (single isomer, unassigned) [CpdX(eA), 5-[4-(5-fluoro-2-methoxyphenyl)-2-hydroxy-4-methyl-2-(trifluoromethyl)pentylamino]-isobenzofuran-1(3H)-one], the “total number of BAL cells, eosinophils and lymphocytes” value (mice) was “efficiently decreased”, the “peribronchiolar and perivascular inflammatory cell infiltration” value (mice) was “decreased” and the “expressions of IL-1β, IL-6, IL-4, IL-5, IL-13, Eotaxin and CCL4 (pro-inflammatory genes) in lung samples” value (mice; q-RT-PCR) was “efficiently decreased”. The “HDM-induced airway hyperresponsiveness (AHR), airway resistance and elastance” value (mice) was “reduced”, the “RNA transcripts of the pro-inflammatory genes expressed in the hind paws (IL-1β, IL-6, IL-17a, IL-17f, TNFα)” value (Male mice (DBA-1 strain)) was “similarly repressed” and the “clinical signs” value (Balb/C mice) was “considerably reduced”. The plasmatic corticosterone level (B6 male mice [1]) was “much higher”, the “cortex layers” value (B6 male mice [1]) was “markedly increased” and the “glomerulosa zone of the adrenal cortex” value (B6 male mice [1]) was “but not”. The “transcripts of Cyp11a” value (B6 male mice [1]) was “increased”, the “control of the blood glucose level” value (B6 male mice [2]) was “does not significantly affect” and the “blood glucose level … (IPGTT)” value (B6 male mice [2]) was “no significant difference”.

`COc1ccc(F)cc1C(C)(C)CC(O)(CNc1ccc2c(c1)COC2=O)C(F)(F)F` (single isomer, unassigned) [CpdX(eB), 5-[4-(5-fluoro-2-methoxyphenyl)-2-hydroxy-4-methyl-2-(trifluoromethyl)pentylamino]-isobenzofuran-1(3H)-one] was tested, and the “hind paw thickness at the ankle level” value (Male mice (DBA-1 strain); 1 mg/kg) was “no such decrease”, the “clinical signs” value (Balb/C mice) was “considerably reduced” and the plasmatic corticosterone level (B6 male mice [1]) was “much higher”. The “cortex layers” value (B6 male mice [1]) was “markedly increased”, the “glomerulosa zone of the adrenal cortex” value (B6 male mice [1]) was “but not” and the “transcripts of Cyp11a” value (B6 male mice [1]) was “increased”. For the same molecule, the “control of the blood glucose level” value (B6 male mice [2]) was “does not significantly affect” and the “blood glucose level … (IPGTT)” value (B6 male mice [2]) was “no significant difference”.

`[2H]C([2H])([2H])Oc1ccc(F)cc1C(C)(C)CC(O)(CNc1ccc2c(c1)COC2=O)C(F)(F)F` (racemic) [CpdX-D3, 5-{4-[2-(methoxy-D3)-5-fluorophenyl]-2-hydroxy-4-methyl-2-(trifluoro-methyl)pentylamino}isobenzofuran-1(3H)-one] was tested, and the “number of neutrophils and macrophages in BAL” value (mice; 0.5 mg/kg on D29-D31, BAL on D32) was “No significant change”, the “total number of BAL cells, eosinophils and lymphocytes” value (mice) was “significantly decreased” and the “eosinophils in lung, immunohistochemistry” value (mice; eosinophil-specific antibodies, data not shown) was “decreased”. For the same molecule, the “peribronchiolar and perivascular inflammatory cell infiltration” value (mice) was “strongly decreased”, the “neutrophils in lung, immunohistochemistry” value (mice; neutrophil-specific antibody, data not shown) was “no significant change” and the “expressions of IL-1β, IL-6, IL-4, IL-5, IL-13, Eotaxin and CCL4 (pro-inflammatory genes) in lung samples” value (mice; q-RT-PCR) was “significantly and similarly decreased”. The “expressions of IL-10 and TNFα in lung samples” value (mice; q-RT-PCR, data not shown) was “not affected”, the “HDM-induced airway hyperresponsiveness (AHR), airway resistance and elastance” value (mice) was “similarly reduced” and the “hind paw thickness at the ankle level” value (Male mice (DBA-1 strain)) was “rapid decrease”. The “RNA transcripts of the pro-inflammatory genes expressed in the hind paws (IL-1β, IL-6, IL-17a, IL-17f, TNFα)” value (Male mice (DBA-1 strain)) was “similarly repressed”, the “hind paw thickness, difference compared to the Dex treatment” value (Male mice (DBA-1 strain); student t test, FIG. 17 legend) was “not significant” and the “clinical signs” value (Balb/C mice) was “considerably reduced”. The plasmatic corticosterone level (B6 male mice [1]) was “much higher”, the “cortex layers” value (B6 male mice [1]) was “markedly increased” and the “glomerulosa zone of the adrenal cortex” value (B6 male mice [1]) was “but not”. The “transcripts of Cyp11a” value (B6 male mice [1]) was “increased”, the “control of the blood glucose level” value (B6 male mice [2]) was “does not significantly affect” and the “blood glucose level … (IPGTT)” value (B6 male mice [2]) was “no significant difference”.
